Measured values reported in US6750228B1, “Aromatic sulfone hydroxamic acid metalloprotease inhibitor” (priority 1997, dated 2004).
Like-named read-outs stand apart in the source and are kept apart here.

What was measured:
MMP-13 = target: T1, MMP-13 (Homo sapiens, UniProt P45452); experiment: biochemical; details: read-out: MMP-13 IC50
T1 construct: made in house; host or cells: baculovirus / insect cells
Protocol: (§1) The compounds prepared in the manner described in the Examples above were assayed for activity by an in vitro assay. […] Briefly, 4-aminophenylmercuric acetate (APMA) or trypsin-activated MMPs were incubated with various concentrations of the inhibitor compound at room temperature for 5 minutes.
(§2) The expressed enzyme was purified first over a heparin agarose column and then over a chelating zinc chloride column. The proenzyme was activated by APMA for use in the assay.
(§3) MMP-1 expressed in transfected HT-1080 cells was provided by Dr. Harold Welgus of Washington University, St. Louis, Mo. The enzyme was also activated using APMA and was then purified over a hydroxamic acid column. Dr. Welgus also provided transfected HT-1080 cells that expressed MMP-9. Transfected cells that expressed MMP-2 were provided by Dr. Gregory Goldberg, also of Washington University. Studies with MMP-7 were carried out at pH 7.5 in the presence of 0.02% 2-mercaptoethanol using conditions otherwise similar to those used for the other enzymes. The enzyme was obtaind from a hMMP-7-expressing E. coli clone that was a gift of Dr. Steven Shapiro of Washington University, St. Louis, Mo. Further specifics for preparation and use of these enzymes can be found in the scientific literature describing these enzymes. See, for example, Enzyme Nomenclature, Academic Press, San Diego, Calif. […] The enzyme substrate is a methoxycoumarin-containing polypeptide having the following sequence:
(§4) MCA-ProLeuGlyLeuDpaAlaArgNH2, wherein MCA is methoxycoumarin and Dpa is 3-(2,4-dinitrophenyl)-L-2,3-diaminopropionyl alanine.
(§5) The buffer used for assays contained 100 mM Tris-HCl, 100 mM NaCl, 10 mM CaCl2 and 0.05 percent polyethyleneglycol (23) lauryl ether at a pH value of 7.5. Assays were carried out at room temperature, and dimethyl sulfoxide (DMSO) at a final concentration of 1 percent was used to dissolve inhibitor compound.
(§6) The assayed inhibitor compound in DMSO/buffer solution was compared to an equal amount of DMSO/buffer with no inhibitor as control using Microfluor White Plates (Dynatech). The inhibitor or control solution was maintained in the plate for 10 minutes and the substrate was added to provide a final concentration of 4 μM.
(§7) Inhibition was measured as a reduction in fluorescent intensity as a function of inhibitor concentration, using a Perkin Elmer L550 plate reader. The IC50 values were calculated from those values. The results are set forth in the Inhibition Table A, below, reported in terms of IC50 to three significant figures, where appropriate.

MMP-2 = target: T2, MMP-2 (Homo sapiens, UniProt P08253); experiment: biochemical
T2 construct: made in house; provided by Dr. Gregory Goldberg, Washington University
T2 sequence (P08253 110-660): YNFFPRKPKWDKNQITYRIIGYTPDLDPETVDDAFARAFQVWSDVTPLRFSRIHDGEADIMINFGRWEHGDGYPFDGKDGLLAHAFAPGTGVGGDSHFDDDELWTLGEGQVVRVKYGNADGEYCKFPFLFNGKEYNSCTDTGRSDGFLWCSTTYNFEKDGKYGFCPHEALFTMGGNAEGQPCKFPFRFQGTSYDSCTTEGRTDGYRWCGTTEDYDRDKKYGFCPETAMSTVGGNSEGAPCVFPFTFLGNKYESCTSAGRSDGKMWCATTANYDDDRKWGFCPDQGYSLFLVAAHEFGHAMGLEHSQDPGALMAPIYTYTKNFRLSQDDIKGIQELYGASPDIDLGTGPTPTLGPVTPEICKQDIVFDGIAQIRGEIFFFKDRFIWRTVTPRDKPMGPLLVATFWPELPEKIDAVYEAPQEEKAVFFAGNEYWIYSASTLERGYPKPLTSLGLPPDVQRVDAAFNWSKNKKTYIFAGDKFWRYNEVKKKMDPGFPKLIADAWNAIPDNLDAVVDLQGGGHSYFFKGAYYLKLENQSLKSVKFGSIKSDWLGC
Protocol: as §1, §2, §3, §4, §5, §6, §7

[1] = recombinant human MMP-13, MCA peptide substrate 4 μM, pH 7.5, room temperature
[2] = recombinant human MMP-2, MCA peptide substrate 4 μM, pH 7.5, room temperature, read-out: MMP-2 IC50

| Compound | IC50 (MMP-13; [1]) [nM] | IC50 (MMP-2; [2]) [nM] | IC50 (MMP-13) [nM] | IC50 (MMP-2; read-out: MMP-2 IC50) [nM] | IC50 (MMP-2; MMP-2 IC50 (nM)) [nM] |
| --- | --- | --- | --- | --- | --- |
| COCCN1CCC(C(N)=O)(S(=O)(=O)c2ccc(Oc3ccc(OC(F)(F)F)cc3)cc2)CC1 [Example 1] | 22.7 | 8.5 | – | – | – |
| C#CCN1CCC(C(N)=O)(S(=O)(=O)c2ccc(Sc3ccccc3)cc2)CC1 [Example 2] | 5500 | 6000 | – | – | – |
| O=C(C1CCN(c2ccc(S(=O)(=O)C3(C(=O)NO)CCOCC3)cc2)CC1)N1CCN(c2ccc(C(F)(F)F)cc2)CC1 [Example 38] | – | – | 67.4 | 6000 | – |
| C=CCN(CC=C)C(=O)C1CCN(c2ccc(S(=O)(=O)C3(C(=O)NO)CCOCC3)cc2)CC1 [Example 48] | 27 | 3200 | – | – | – |
| CC1CC(C)CN(C(=O)C2CCN(c3ccc(S(=O)(=O)C4(C(=O)NO)CCOCC4)cc3)CC2)C1 (centres unmarked) [Example 55] | 10 | > 10000 | – | – | – |
| COc1ccccc1N1CCN(c2ccc(S(=O)(=O)C3(C(=O)NO)CCOCC3)cc2)CC1 [Example 85] | 130 | 370 | – | – | – |
| O=C(NO)C1(S(=O)(=O)c2ccc(N3CCC(OCc4cccc(C(F)(F)F)c4)CC3)cc2)CCOCC1 [Example 177] | 8.8 | 520 | – | – | – |
| CNC(=S)N1CCC(C(=O)NO)(S(=O)(=O)c2ccc(Oc3ccc(OC(F)(F)F)cc3)cc2)CC1 [Example 198, N-hydroxy-4[[4-(4-trifluoromethoxyphenoxy)-]sulfonyl]-1-(N-methylthiourea)-4-piperidinecarboxamide] | 0.375 | 0.25 | – | – | – |
| O=C(NO)C1(S(=O)(=O)c2ccc(Oc3ccc(C(F)(F)F)cc3)cc2)CCN(C2CC2)CC1 [Example 269] | – | – | – | – | < 0.1 |
| O=C(NO)C1(S(=O)(=O)c2ccc(Oc3ccc(C(F)(F)F)cc3)cc2)CCN(C2CC2)CC1 [Example 270] | – | – | – | – | 1 |
| O=C(NO)C1(S(=O)(=O)c2ccc(Oc3ccc(C(F)(F)F)cc3)cc2)CCN(C2CC2)CC1 [Example 271] | – | – | – | – | 0.17 |
| O=C(NO)C1(S(=O)(=O)c2ccc(N3CCN(c4ccc(Cl)cc4)CC3)cc2)CCN(C2CC2)CC1 [Example 354] | 1.6 | 15.4 | – | – | – |
| O=C(NO)C1(S(=O)(=O)c2ccc(N3CCN(c4ccc(C(F)(F)F)cc4)CC3)cc2)CCN(C2CC2)CC1 [Example 356] | 2.4 | 32.6 | – | – | – |
| C=C(C)c1ccc(N2CCN(c3ccc(S(=O)(=O)C4(C(=O)NO)CCN(C5CC5)CC4)cc3)CC2)cc1 [Example 360] | 10 | 5.6 | – | – | – |
| COc1ccc(N2CCN(c3ccc(S(=O)(=O)C4(C(=O)NO)CCN(C5CC5)CC4)cc3)CC2)cc1 [Example 368] | – | 7 | – | – | – |
| O=C(NO)C1(S(=O)(=O)c2ccc(N3CCN(c4ccccc4)CC3)cc2)CCN(C2CC2)CC1 [Example 369] | 3.3 | 5.4 | – | – | – |
| CCc1ccc(C(=O)C2CCN(c3ccc(S(=O)(=O)C4(C(=O)NO)CCN(C5CC5)CC4)cc3)CC2)cc1 [Example 371] | 11.1 | 400 | – | – | – |
| Cc1ccc(C(=O)C2CCN(c3ccc(S(=O)(=O)C4(C(=O)NO)CCN(C5CC5)CC4)cc3)CC2)cc1 [Example 373] | 3 | 80 | – | – | – |
| CCOc1ccc(C(=O)C2CCN(c3ccc(S(=O)(=O)C4(C(=O)NO)CCN(C5CC5)CC4)cc3)CC2)cc1 [Example 376] | 5.5 | 230 | – | – | – |
| O=C(NO)C1(S(=O)(=O)c2ccc(N3CCC(Sc4nc5ccccc5o4)CC3)cc2)CCN(C2CC2)CC1 [Example 382] | 11.4 | 260 | – | – | – |
| O=C(NO)C1(S(=O)(=O)c2ccc(N3CCC(c4nc(-c5cccc(C(F)(F)F)c5)no4)CC3)cc2)CCN(C2CC2)CC1 [Example 388] | 50 | 430 | – | – | – |

| Compound | IC50 (MMP-13; [1]) [nM] | IC50 (MMP-2; [2]) [nM] | IC50 (MMP-13) [nM] | IC50 (MMP-2; read-out: MMP-2 IC50) [nM] | IC50 (MMP-2; MMP-2 IC50 (nM)) [nM] |
| --- | --- | --- | --- | --- | --- |
| O=C(NO)C1(S(=O)(=O)c2ccc(N3CCC(SCc4ccc(C(F)(F)F)cc4)CC3)cc2)CCN(C2CC2)CC1 [Example 394] | 0.5 | 8 | – | – | – |
| C[C@H](OC1CCN(c2ccc(S(=O)(=O)C3(C(=O)NO)CCN(C4CC4)CC3)cc2)CC1)c1ccccc1 [Example 400] | 23.5 | 520 | – | – | – |
| O=CN1CCC(C(=O)NO)(S(=O)(=O)c2ccc(Oc3ccc(OC(F)(F)F)cc3)cc2)CC1 [Example 452] | < 0.1 | < 0.1 | – | – | – |
| O=C(NO)C1(S(=O)(=O)c2ccc(N3CCN(CCO)CC3)cc2)CCOCC1 [Example 623] | 350 | 1400 | – | – | – |
| Cc1ccc(C(O)C2CCN(c3ccc(S(=O)(=O)C4(C(=O)NO)CCOCC4)cc3)CC2)cc1C (centres unmarked) [Example 826] | 40 | 650 | – | – | – |
| O=C(NO)C1(S(=O)(=O)c2ccc(C3=CCC(c4ccccc4)CC3)cc2)CCOCC1 (centres unmarked) [Example 828] | 1.5 | 12.8 | – | – | – |
| COc1cccc(S(=O)(=O)N2CC(Oc3ccc(S(=O)(=O)C4(C(=O)NO)CCOCC4)cc3)C2)c1 [Example 829] | 6 | 22 | – | – | – |
| Cc1ccc(S(=O)(=O)N(C)C2CCN(c3ccc(S(=O)(=O)C4(C(=O)NO)CCOCC4)cc3)CC2)cc1 [Example 834] | 150 | 780 | – | – | – |
| CN(C)c1ccc(S(=O)(=O)C2CCN(c3ccc(S(=O)(=O)C4(C(=O)NO)CCOCC4)cc3)CC2)cc1 [Example 836] | 135 | 4200 | – | – | – |
| CC(C)(C)c1ccc(CC2CCN(c3ccc(S(=O)(=O)C4(C(=O)NO)CCOCC4)cc3)CC2)cc1 [Example 841] | 285 | 1900 | – | – | – |
| CS(=O)(=O)c1ccccc1S(=O)(=O)N1CC(Oc2ccc(S(=O)(=O)C3(C(=O)NO)CCOCC3)cc2)C1 [Example 845] | 28.6 | 2000 | – | – | – |
| CCCCS(=O)(=O)N1CC(Oc2ccc(S(=O)(=O)C3(C(=O)NO)CCOCC3)cc2)C1 [Example 851] | 3.7 | 42.5 | – | – | – |
| CN(C)c1cccc2c(S(=O)(=O)N3CC(Oc4ccc(S(=O)(=O)C5(C(=O)NO)CCOCC5)cc4)C3)cccc12 [Example 852] | 25 | 3000 | – | – | – |
| CN(C)S(=O)(=O)N1CC(Oc2ccc(S(=O)(=O)C3(C(=O)NO)CCOCC3)cc2)C1 [Example 853] | 15.8 | 120 | – | – | – |
| CC(=O)c1ccccc1S(=O)(=O)N1CC(Oc2ccc(S(=O)(=O)C3(C(=O)NO)CCOCC3)cc2)C1 [Example 854] | 40 | 3300 | – | – | – |
| CSc1ccc(C(=O)C2CCN(c3ccc(S(=O)(=O)C4(C(=O)NO)CCOCC4)cc3)CC2)cc1 [Example 856] | 1.2 | 250 | – | – | – |
| O=C(c1ccc(Cl)cc1)C1CCN(c2ccc(S(=O)(=O)C3(C(=O)NO)CCOCC3)cc2)CC1 [Example 857] | 1.3 | 120 | – | – | – |
| COc1cc(C(=O)C2CCN(c3ccc(S(=O)(=O)C4(C(=O)NO)CCOCC4)cc3)CC2)ccc1Cl [Example 859] | 5.5 | 440 | – | – | – |
| O=C(Cc1ccc(Cl)cc1)C1CCN(c2ccc(S(=O)(=O)C3(C(=O)NO)CCOCC3)cc2)CC1 [Example 861] | 2 | 34.9 | – | – | – |
| COc1ccc(CC(=O)C2CCN(c3ccc(S(=O)(=O)C4(C(=O)NO)CCOCC4)cc3)CC2)cc1 [Example 862] | 1.7 | 40 | – | – | – |
| Cc1ccc(C2CCN(c3ccc(S(=O)(=O)C4(C(=O)NO)CCOCC4)cc3)CC2)cc1C [Example 869] | 2 | 76.9 | – | – | – |
